According to patent US20140322704A1, “Hepatitis Virus Culture Systems Using Stem Cell-Derived Human Hepatocyte-Like Cells and Their Methods of Use” (The Florida State University Research Foundation, Inc., priority 2011, published 2014):

Assays:
Assay type in all cases: cell-based
[1] = system: JFH-1 based HCVcc; assay: HCVcc infection of DHHs in the presence of HCV inhibitors (FIG. 2D)
Excerpt: FIG. 2 depicts the results of experiments assessing infection of DHHs derived from hESCs and iPSCs. (A) Detection of HCV proteins in DHHs infected with JFH-1 based HCVcc. DHHs were inoculated with three different preparations of HCVcc at day 13 post-differentiation and cell lysates collected at day 21 for western blot analysis. The anti-NS3 antibody also recognized a non-specific band in the mock infected sample. (B) Immunostaining of infected DHHs. A JFH variant containing a FLAG tag in the NS5A protein was used to infect either Huh-7.5 or DHHs and staining was done with an anti-FLAG antibody. (C) Infection of Huh-7.5 and DHHs as measured by the HCV-dependent fluorescence relocalization assay. Reporter-transduced cells were infected with HCVcc and the cells were fixed for immunofluorescence analysis 72 hours post-infection. For the RFP-NLS-IPS expressing cells, HCV infection leads to complete nuclear translocation of the RFP; for the EGFP-IPS cells, HCV infection leads to redistribution of green fluorescence from a reticulate cytoplasmic pattern to a diffused pattern with a nuclear enrichment. […] The following inhibitors were included in the infection experiments. IFN: interferon-α, 80 units/ml; AR3A: anti-E2 neutralizing antibody, 1 μg/ml; ITX: ITX5061, an SR-BI inhibitor, 1 μM. (E) Comparison of HCVcc infection levels in DHHs and PHHs. PHHs were infected for 8 days to keep the infected days the same between the two cell types (DHHs were infected at day 13 and the lysed at day 21). (F) Infection of DHHs derived from an iPSC line. Differentiation and infection of iPS.K3 were performed as described for H9-derived DHHs (FIG. 1 and FIG. 2A).
All JFH-1 based HCVcc (Mut4-6, SAV, Jc1/GLuc2A, and DEYN-Jc1/GLuc2A) were produced in Huh-7.5 cells as previously described (2005, Lindenbach, et al., Science 309:623-626). Genotype 1b HCVser was obtained from a commercial supplier (Teragenix, Ft. Lauderdale, Fla.). All infections were done by incubating virus inoculum with cells for 6-9 hours before the cells were washed and changed into the appropriate medium for the specific cell type and differentiation stage. For the time course of DHHs permissiveness, infection of each time point was allowed to proceed for exactly 48 hours before cell harvesting and western blotting. Immunofluorescence analysis of HCV receptors and intracellular antigens. Cells were fixed in 4% paraformaldehyde in phosphate-buffered saline (PBS) at room temperature for 10 minutes and blocked with PBGB (PBS containing 10% normal goat serum, and 1% bovine serum albumin (BSA)) at room temperature for 2 hours. Cells were incubated with primary antibodies (anti-CD81, anti-SR-B1, anti-claudin 1 and anti-occludin, diluted in PBG at 1:200) at 4° C. overnight or 2 hours at room temperature. […]

[2] = system: genotype 1b HCVser; assay: Infection of DHHs by patient serum-derived HCV, western blotting (FIG. 7A); details: IFN-α 50 units/ml; genotype 1b patient serum; 48 hours
Excerpt: FIG. 7 depicts the results of experiments assessing the direct infection of DHHs by HCV derived from patient serum. (A) Detection of IFN-sensitive HCVser infection by western blotting IFN-α was included in the medium at 50 units/ml when indicated. (B) Visualization of single cell infection events by HCVser using the HCV-dependent fluorescence relocalization assay. Arrows indicate individual cells infected with HCVser and showing nuclear translocation of the RFP. (C) Secretion of HCV core antigen into culture supernatant by HCVser-infected DHHs. Values for core levels in supernatants collected 48 hours post-infection were plotted. IFN-α was included in the medium at 50 units/ml when indicated. Error bars represent standard deviation of replicate experiments. (D) HCVser preferentially infected DHHs over Huh-7.5 cells. […]
Although robust infection of PHHs by HCVcc has been reported (2010, Podevin et al., Gastroenterology 1355-1364; 2010, Ploss et al., Proc Natl Acad Sci USA 107:3141-3145; 2010, Banaudha et al., Hepatology 51:1922-1932), direct infection by HCV derived from patient serum (HCVser) remained inefficient (2010, Podevin et al., Gastroenterology. 139:1355-1364; 1998, Fournier et al., J Gen Virol. 79:2367-2374). […] In addition, secretion of HCV core antigen was detected in the supernatant of the DHHs infected by HCVser (FIG. 7C).

[3] = system: HCVcc; assay: Secretion of HCV core antigen into culture medium by HCVcc-infected DHHs, core ELISA (FIG. 3B); details: IFN-α 50 units/ml; 48 hours after infection; H9-derived DHHs
Description: FIG. 3 depicts the results of experiments showing that DHHs support persistent infection and secrete infectious HCV particles. (A) Continuous replication of HCVcc in DHHs. Day-10 DHHs were infected with Jc1/GLuc2A for 9 hours before the inoculum was removed and the cells were changed into medium E with or without a cyclophilin inhibitor CsA at 1 μg/ml. Culture supernatants were collected daily to measure luciferase activity. The culture media was replaced with thorough washing every 48 hours and CsA was included every time fresh media was used. Error bars represent standard deviation from triplicate experiments. (B) Secretion of HCV core antigen into the culture medium by infected DHHs. […]
To quantify miR-122 levels, TRIzol extracted RNA samples were reverse transcribed using TaqMan MicroRNA Reverse Transcription kit (Applied Biosystems) and the resulting cDNA served as templates for Real-Time PCR analysis using TaqMan MicroRNA Assay for miR-122 (Applied Biosystems). […]
To verify continuous viral replication during the infection period, the secretion of Gaussia luciferase into the culture media by the DHHs infected with the GLuc reporter virus was monitored using a procedure previously used to monitor persistent HCV infection in microscale PHHs (2010, Floss et al., Proc Natl Acad Sci USA 107:3141-3145). […]

Row | Compound | HCV infection in DHHs ([1]; ITX5061 1 μM) | HCV infection in DHHs ([1]; ITX5061 1 μM, listed as small molecule compound that inhibits the scavenger receptor class B type I (SR-) | HCVser infection of DHHs detected by western blotting [2] | HCV core antigen in the supernatant of infected cells [3] | HCV infection in DHHs ([1]; interferon-α 80 units/ml) | HCV infection in DHHs ([1]; interferon-α 80 units/ml, listed as IFN)
1 | COc1c(NC(=O)C(=O)c2ccc(OCCN3CCOCC3)c3ccccc23)cc(C(C)(C)C)cc1NS(C)(=O)=O [ITX5061] | abolished HCV infection | efficiently blocked infection |  |  |  | 
2 | interferon-α [IFN-α] |  |  | sensitive to IFN inhibition | not in that of the similarly infected but IFN-treated cells | efficiently blocked infection | abolished HCV infection
